As a reminder, the melting point is the temperature of the solid-liquid transition.

`COc1ccc(-n2nc(OC)cc2-c2ccc(OCCO)cc2)cn1`: the melting point was in the range of 92.2 to 92.5 °C. In the case of `COc1ccc(-n2nc(OCC(=O)N(C)C)cc2-c2ccc(OCCNC(N)=O)cc2)cc1`, the melting point fell in the range of 223 to 227 °C. The compound `CCOc1cc(-c2ccc(OCCO)cc2)n(-c2ccc(OC)cc2)n1` displayed a melting point of 67.7 to 69.2 °C.

Regarding `CCN(C)C(=O)c1cc(-c2ccc(CCNS(C)(=O)=O)cc2)n(-c2ccc(OC)cc2)n1`, the melting point was in the range of 162 to 163 °C. As for `CNC(=O)NCCc1ccc(-c2cc(C(F)(F)F)nn2-c2ccc(OC)nc2)cc1`, the melting point turned out to be 149 °C. Regarding `COc1ccc(-n2nc(C(=O)N3CCCCC3)cc2-c2ccc(OCCNC(N)=O)cc2)cn1`, the melting point lay within 164 to 167 °C.

For the compound `COc1ccc(-n2nc(OC)cc2-c2ccc(OCCNS(C)(=O)=O)cc2)cc1`, the melting point is 103 to 104 °C.

Compound `CSc1ccc(-n2nc(C(F)F)cc2-c2ccc(OCCNC(N)=O)cc2)cc1` showed a melting point of 184.3 to 184.7 °C. As for `CCOC(=O)c1cc(-c2ccc(OCCO[Si](C)(C)C(C)(C)C)cc2)n(-c2ccc(OC)cc2)n1`, the melting point is 86 to 87 °C.

`COc1ccc(-n2nc(OC(C)C)cc2-c2ccc(OCCO)cc2)cn1`: the melting point is 74 to 75 °C.

`COc1ccc(-n2nc(C(C)C)cc2-c2ccc(OCCNS(C)(=O)=O)cc2)cn1`: the melting point lay in the range of 96 to 97 °C.

As for `COc1ccc(-n2nc(C3CC3)cc2-c2ccc(OCCN)cc2)cc1.Cl` [277], the melting point was 229 to 231 °C.

Regarding `COCCOc1cc(-c2ccc(OCCNS(C)(=O)=O)cc2)n(-c2ccc(OC)cc2)n1`, the melting point fell in the range of 94.5 to 94.7 °C.

`COc1ccc(-n2nc(C(F)(F)F)cc2-c2ccc(CCNC(C)=O)cc2)cc1` had a melting point of 79 to 80 °C.

In turn, `COc1ccc(-n2nc(C(F)(F)F)cc2-c2ccc(CCC[S+](C)[O-])cc2)cn1` (stereo not drawn) came in with a melting point of 92 to 93 °C. Consider `COc1ccc(-n2nc(C(F)(F)F)cc2-c2ccc(CCNC(N)=O)cc2)cc1`, for which the melting point lay in the range of 157 to 158 °C. For the compound `CCN(C)C(=O)c1cc(-c2ccc(OCCO)cc2)n(-c2ccc(OC)nc2)n1`, the melting point fell in the range of 110 to 111 °C.

`COc1ccc(-n2nc(C(F)(F)F)cc2-c2ccc(CCCS(C)(=O)=O)cc2)cn1` gave a melting point of 121 to 122 °C. Compound `CCOc1cc(-c2ccc(OCCNS(C)(=O)=O)cc2)n(-c2ccc(OC)nc2)n1` gave a melting point of 122 to 122.6 °C. The compound `COc1ccc(-n2nc(C(F)F)cc2-c2ccc(CNS(C)(=O)=O)cc2)cn1` displayed a melting point of 125.7 to 126.1 °C. The compound `COc1ccc(-n2nc(C(F)(F)F)cc2-c2ccc(CCO)cc2)cn1` returned a melting point of 89 to 92 °C.

Take `COc1ccc(-n2nc(C(C)(C)O)cc2-c2ccc(OCCNC(N)=O)cc2)cc1`: the melting point lay in the range of 147 to 152 °C. With `COc1ccc(-n2nc(C(C)C)cc2-c2ccc(CNC(N)=O)cc2)cn1`, the melting point fell in the range of 139 to 144 °C. The compound `COc1ccc(-n2nc(OC)cc2-c2ccc(OCCNC(N)=S)cc2)cc1` came in with a melting point of 141.6 to 142.3 °C. As for `COc1ccc(-n2nc(OC(C)C)cc2-c2ccc(OCCNS(C)(=O)=O)cc2)cn1`, the figure is 121 to 121.6 °C; as for `COc1ccc(-n2nc(C#N)cc2-c2ccc(OCCNC(N)=O)cc2)cn1`, 173 to 176 °C; as for `COc1ccc(-n2nc(OC(C)C)cc2-c2ccc(OCCNC(N)=O)cc2)cn1`, 120 °C. As for `COc1ccc(-n2nc(OC)cc2-c2ccc(CNC(N)=O)cc2)cc1`, the figure is 206 to 260.9 °C. On to `COc1ccc(-n2nc(Cl)cc2-c2ccc(OCCNS(=O)(=O)CCO)cc2)cc1`, for which the melting point lay in the range of 139.1 to 139.4 °C. Take `COc1ccc(-n2nc(C#N)cc2-c2ccc(OCCNC(N)=O)cc2)cc1`: the melting point was in the range of 187 to 190 °C.

`COc1ccc(-n2nc(C(=O)C(C)C)cc2-c2ccc(OCCN)cc2)cc1.Cl` registered a melting point of 129 to 142 °C. `COc1ccc(-n2nc(Cl)cc2-c2ccc(OCCNS(C)(=O)=O)cc2)cc1` returned a melting point of 117 to 119 °C.

In the case of `CCOc1cc(-c2ccc(OCCNC(N)=O)cc2)n(-c2ccc(OC)nc2)n1`, the melting point was in the range of 133 to 138 °C. With `CSc1ccc(-n2nc(C(F)F)cc2-c2ccc(OCCNS(C)(=O)=O)cc2)cc1`, the melting point fell in the range of 122.7 to 122.8 °C. In the case of `CCOCCOc1cc(-c2ccc(OCCNS(C)(=O)=O)cc2)n(-c2ccc(OC)cc2)n1`, the melting point lay within 116.3 to 116.4 °C. The value for `COc1ccc(-n2nc(OCC(F)(F)F)cc2-c2ccc(OCCNC(N)=O)cc2)cc1` was 130 to 132 °C; that for `COc1ccc(-n2nc(OCC(F)F)cc2-c2ccc(OCCNS(C)(=O)=O)cc2)cc1` was 145 to 145.1 °C; that for `CCOCCOc1cc(-c2ccc(OCCNC(N)=O)cc2)n(-c2ccc(OC)cc2)n1` was 124.1 to 124.2 °C.

Take `CO/N=C(\C)c1cc(-c2ccc(CCO)cc2)n(-c2ccc(OC)cc2)n1`: the melting point fell in the range of 82 to 86 °C.

As to `COc1ccc(-n2nc(C(F)(F)F)cc2-c2ccc(CCOC(N)=O)cc2)cc1`, the melting point fell in the range of 169 to 170 °C. As for `CCN(C)C(=O)c1cc(-c2ccc(OCCNS(C)(=O)=O)cc2)n(-c2ccc(OC)nc2)n1`, the figure is 110 to 111 °C; as for `COc1ccc(-n2nc(OCC(F)(F)F)cc2-c2ccc(OCCNS(C)(=O)=O)cc2)cc1`, 131.3 to 131.4 °C; as for `COc1ccc(-n2nc(C(=O)C3CC3)cc2-c2ccc(OCCO)cc2)cn1`, 104 to 106 °C. Compound `COCCOc1cc(-c2ccc(OCCNC(N)=O)cc2)n(-c2ccc(OC)cc2)n1` had a melting point of 131 to 132 °C. `COc1ccc(-n2nc(S(C)(=O)=O)cc2-c2ccc(OCCN)cc2)cc1` displayed a melting point of 104 to 106 °C. `COc1ccc(-n2nc(C(=O)N3CCCCC3)cc2-c2ccc(CNS(C)(=O)=O)cc2)cc1` yielded a melting point of 179.3 to 179.6 °C. `COc1ccc(-n2nc(C(F)F)cc2-c2ccc(OCCNC(N)=O)cc2)cn1` [241] showed a melting point of 139 to 140 °C. The compound `COc1ccc(-n2nc(C(=O)C(C)C)cc2-c2ccc(CNC(N)=O)cc2)cn1` yielded a melting point of 157 to 157.3 °C. The value for `COc1ccc(-n2nc(C(F)(F)C(F)(F)F)cc2-c2ccc(CCO)cc2)cc1` was 97 to 98 °C; that for `COc1ccc(-n2nc(C(=O)C(C)C)cc2-c2ccc(OCCN)cc2)cn1.Cl.Cl` was 156 to 161 °C; that for `COc1ccc(-n2nc(C(F)(F)F)cc2-c2ccc(CNC(N)=O)cc2)cn1` was 147 to 149 °C. With `COc1ccc(-n2nc(C(F)(F)F)c(C)c2-c2ccc(OCCNC(N)=O)cc2)cc1`, the melting point is 150.5 to 151.1 °C.

Compound `COCOc1ccc(-c2cc([S+](C)[O-])nn2-c2ccc(OC)cc2)cc1` (stereo not drawn) returned a melting point of 136.9 to 137.3 °C. The value for `CCN(C)C(=O)c1cc(-c2ccc(OCCNS(C)(=O)=O)cc2)n(-c2ccc(OC)cc2)n1` was 106 to 106.3 °C; that for `COc1ccc(-n2nc(C(=O)C(C)C)cc2-c2ccc(CNS(C)(=O)=O)cc2)cn1` was 160.8 to 161.2 °C; that for `COc1ccc(-n2nc(Cl)cc2-c2ccc(CNC(N)=O)cc2)cc1` was 125.5 to 126.2 °C. For `CCN(C)C(=O)c1cc(-c2ccc(CNS(C)(=O)=O)cc2)n(-c2ccc(OC)cc2)n1`, the melting point was in the range of 149.8 to 150.8 °C.

The values are drawn from US7183306B2, “Pyrazole derivatives” (Astellas Pharma Inc., priority 2002, dated 2007).
